Experimental findings from patent US8741906B2 (priority 2011, dated 2014) are described below.

One assay deals with T1, human CB1 receptors (Homo sapiens, UniProt P21554).
T1 construct: expressed in transfected cells; host or cells: CHO cells
Nature of the assay: functional cAMP assay, human CB1. Format: cell-based. Particulars: CHO cells expressing human CB1, cAMP; read-out: human CB1 EC50. The procedure, abridged: (§1)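 Agonist EC50 values came from cAMP levels in CHO cells carrying human CB1 or CB2, after 30 min of compound treatment at 30 °C in the presence of 1 mM IBMX. Detection used a time-resolved FRET cAMP kit read against a cAMP standard curve.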
A general note: Changes in cAMP serve as a functional read-out for many G protein-coupled receptors.

Another assay has as its target T2, human CB2 receptors (Homo sapiens, UniProt P34972).
T2 construct: expressed in transfected cells; host or cells: CHO cells
As to the kind of experiment: functional cAMP assay, human CB2. The class given is cell-based. The following applies: CHO cells expressing human CB2, cAMP; read-out: human CB2 EC50. The procedure, abridged: as §1

pEC50: −log10 of the molar value. A value given as a limit tells only on which side of the number the result lay.

T1 sequence (P21554 whole entry): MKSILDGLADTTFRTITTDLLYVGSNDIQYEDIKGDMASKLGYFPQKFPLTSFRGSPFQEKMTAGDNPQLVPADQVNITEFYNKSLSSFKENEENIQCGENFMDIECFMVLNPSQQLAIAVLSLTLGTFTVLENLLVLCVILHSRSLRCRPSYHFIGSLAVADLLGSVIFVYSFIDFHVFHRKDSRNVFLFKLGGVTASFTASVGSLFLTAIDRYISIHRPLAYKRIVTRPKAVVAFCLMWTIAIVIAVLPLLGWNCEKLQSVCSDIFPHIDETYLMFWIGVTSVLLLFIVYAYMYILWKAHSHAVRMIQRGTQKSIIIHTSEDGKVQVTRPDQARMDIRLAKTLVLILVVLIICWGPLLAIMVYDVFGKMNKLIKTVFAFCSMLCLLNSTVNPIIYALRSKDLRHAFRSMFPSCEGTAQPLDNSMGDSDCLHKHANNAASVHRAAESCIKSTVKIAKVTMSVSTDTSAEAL
T2 sequence (P34972 whole entry): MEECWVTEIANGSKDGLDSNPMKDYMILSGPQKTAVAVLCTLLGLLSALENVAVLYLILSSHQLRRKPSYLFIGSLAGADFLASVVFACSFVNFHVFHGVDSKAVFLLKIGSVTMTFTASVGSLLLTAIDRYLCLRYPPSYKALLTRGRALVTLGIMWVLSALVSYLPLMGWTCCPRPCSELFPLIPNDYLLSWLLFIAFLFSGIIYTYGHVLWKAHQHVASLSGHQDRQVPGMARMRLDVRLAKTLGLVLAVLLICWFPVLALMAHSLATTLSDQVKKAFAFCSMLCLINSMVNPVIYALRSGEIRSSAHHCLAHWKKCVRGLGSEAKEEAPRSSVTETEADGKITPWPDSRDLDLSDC

For orientation: pEC50 means the negative decadic logarithm of the EC50, by convention in mol/L. In the case of `CC(C)(C)c1nc(N2CC[C@](C)(O)C2)c2nnn(CCC(F)(F)F)c2n1` [Example 229-a, (S)-1-(5-tert-butyl-3-(3,3,3-trifluoropropyl)-3H-[1,2,3]triazolo[4,5-d]pyrimidin-7-yl)-3-methylpyrrolidin-3-ol], the negative logarithm of the EC50 (pEC50) at human CB1 receptors was less than 5.00; at human CB2 receptors, 7.52.

With `CC(C)(C)c1nc(N2CCCC23COC3)c2nnn(Cc3ccccc3Cl)c2n1` [Example 53, 5-tert-Butyl-3-(2-chloro-benzyl)-7-(2-oxa-5-aza-spiro[3.4]oct-5-yl)-3H-[1,2,3]triazolo[4,5-d]pyrimidine], the pEC50 at human CB1 receptors was less than 5.00; at human CB2 receptors it was 7.82.

For `CC(C)(C)c1nc(N2CC[C@H](O)C2)c2nnn(Cc3nccc(Cl)c3Cl)c2n1` [Example 148, (S)-1-[5-tert-Butyl-3-(3,4-dichloro-pyridin-2-ylmethyl)-3H-[1,2,3]triazolo[4,5-d]pyrimidin-7-yl]-pyrrolidin-3-ol], the figures for the pEC50 at human CB1 receptors and on human CB2 receptors were less than 5.00 and 9.40, respectively.

On to `CC1(O)CCN(c2nc(C(C)(C)C)nc3c2nnn3Cc2ccccc2Cl)C1` (stereo not shown) [Example 54, 1-[5-tert-Butyl-3-(2-chloro-benzyl)-3H-[1,2,3]triazolo[4,5-d]pyrimidin-7-yl]-3-methyl-pyrrolidin-3-ol], for which the values for the pEC50 at human CB1 receptors and on human CB2 receptors were less than 5.00 and 8.55, respectively.

As for `CC(C)(C)c1nc(N2CC[C@](C)(O)C2)c2nnn(Cc3ccccc3S(C)(=O)=O)c2n1` [Example 223-a, (S)-1-(5-tert-butyl-3-(2-(methylsulfonyl)benzyl)-3H-[1,2,3]triazolo[4,5-d]pyrimidin-7-yl)-3-methylpyrrolidin-3-ol], the pEC50 is 6.62 on human CB1 receptors and 9.40 on human CB2 receptors.

Turning to `CC(C)(C)c1nc(N2CC(O)C2)c2nnn(Cc3ccccc3Cl)c2n1` [Example 13], the pEC50 on human CB1 receptors is less than 5.00; on human CB2 receptors, 7.91.

On to `Cc1nnc(Cn2nnc3c(N4CCC(F)(F)C4)nc(C(C)(C)C)nc32)o1` [Example 128, 5-tert-Butyl-7-(3,3-difluoro-pyrrolidin-1-yl)-3-(5-methyl-[1,3,4]oxadiazol-2-ylmethyl)-3H-[1,2,3]triazolo[4,5-d]pyrimidine], for which the pEC50 on human CB1 receptors was less than 5.00; at human CB2 receptors, 9.40.

Consider `CC(C)(C)c1nc(N2CCC(F)(F)C2)c2nnn(CCc3cccnc3)c2n1` [Example 121, 5-tert-Butyl-7-(3,3-difluoro-pyrrolidin-1-yl)-3-(2-pyridin-3-yl-ethyl)-3H-[1,2,3]triazolo[4,5-d]pyrimidine], for which the results for the pEC50 on human CB1 receptors and at human CB2 receptors were less than 5.00 and 9.52, respectively.

As to `CC(C)(C)c1nc(N2CCC(F)(F)C2)c2nnn(C3CCS(=O)(=O)C3)c2n1` (stereo not shown) [Example 126, 5-tert-Butyl-7-(3,3-difluoro-pyrrolidin-1-yl)-3-(1,1-dioxo-tetrahydro-1λ^6-thiophen-3-yl)-3H-[1,2,3]triazolo[4,5-d]pyrimidine], the pEC50 on human CB1 receptors was 6.30; at human CB2 receptors it was 9.52.

Take `CC(C)(C)c1nc(N2CCC(F)(F)C2)c2nnn(Cc3c(Cl)cccc3Cl)c2n1` [Example 70, 5-tert-Butyl-3-(2,6-dichloro-benzyl)-7-(3,3-difluoro-pyrrolidin-1-yl)-3H-[1,2,3]triazolo[4,5-d]pyrimidine]: the pEC50 was 7.29 on human CB1 receptors and 10.00 on human CB2 receptors.

Take `CC(C)(C)c1nc(N2CCC(F)(F)C2)c2nnn(C3CS(=O)(=O)C3)c2n1` [Example 125, 5-tert-Butyl-7-(3,3-difluoro-pyrrolidin-1-yl)-3-(1,1-dioxo-1λ^6-thietan-3-yl)-3H-[1,2,3]triazolo[4,5-d]pyrimidine]: the negative-log EC50 (pEC50) is less than 5.00 at human CB1 receptors and 8.72 at human CB2 receptors.

Regarding `CC(C)(C)c1nc(N2CC[C@H](O)C2)c2nnn(Cc3nnnn3C3CC3)c2n1` [Example 160, (S)-1-[5-tert-Butyl-3-(1-cyclopropyl-1H-tetrazol-5-ylmethyl)-3H-[1,2,3]triazolo[4,5-d]pyrimidin-7-yl]-pyrrolidin-3-ol], the pEC50 was less than 5.00 on human CB1 receptors and 9.15 on human CB2 receptors.

`CC(C)(C)c1nc(N2CCC(O)C2)c2nnn(Cc3ccccc3Cl)c2n1` (stereo not shown) [Example 204, 1-[5-tert-Butyl-3-(2-chloro-benzyl)-3H-[1,2,3]triazolo[4,5-d]pyrimidin-7-yl]-pyrrolidin-3-ol]: the negative logarithm of the EC50 (pEC50) was less than 5.00 at human CB1 receptors and 9.30 at human CB2 receptors.

Turning to `CN1CCN(c2nc(C(C)(C)C)nc3c2nnn3Cc2ccccc2Cl)CC1` [Example 4, 5-tert-Butyl-3-(2-chloro-benzyl)-7-(4-methyl-piperazin-1-yl)-3H-[1,2,3]triazolo[4,5-d]pyrimidine], the pEC50 was 6.72 on human CB1 receptors and 8.85 at human CB2 receptors.

Take `CC(C)(C)c1nc(N2CC[C@H](O)C2)c2nnn(Cc3cccnc3Cl)c2n1` [Example 140, (S)-1-[5-tert-Butyl-3-(2-chloro-pyridin-3-ylmethyl)-3H-[1,2,3]triazolo[4,5-d]pyrimidin-7-yl]-pyrrolidin-3-ol]: the results for the negative-log EC50 (pEC50) at human CB1 receptors and on human CB2 receptors were less than 5.00 and 10.00, respectively.

On to `CC(C)(C)c1nc(N2CCC(F)(F)C2)c2nnn(Cc3ccccc3Br)c2n1` [Example 79, 3-(2-Bromo-benzyl)-5-tert-butyl-7-(3,3-difluoro-pyrrolidin-1-yl)-3H-[1,2,3]triazolo[4,5-d]pyrimidine], for which the negative logarithm of the EC50 (pEC50) on human CB1 receptors was 7.08; on human CB2 receptors, 10.00.

Take `CC(C)(C)c1nc(N2CCC(F)(F)C2)c2nnn(Cc3c(Cl)ccc(F)c3Cl)c2n1` [Example 96, 5-tert-Butyl-3-(2,6-dichloro-3-fluoro-benzyl)-7-(3,3-difluoro-pyrrolidin-1-yl)-3H-[1,2,3]triazolo[4,5-c]pyrimidine]: the results for the pEC50 on human CB1 receptors and at human CB2 receptors were 6.78 and 10.00, respectively.

On to `Cn1nnnc1Cn1nnc2c(N3CC4(COC4)C3)nc(C(C)(C)C)nc21` [Example 182, 5-tert-Butyl-3-(1-methyl-1H-tetrazol-5-ylmethyl)-7-(2-oxa-6-aza-spiro[3.3]hept-6-yl)-3H-[1,2,3]triazolo[4,5-d]pyrimidine], for which the pEC50 was less than 5.00 at human CB1 receptors and 7.86 on human CB2 receptors.

Regarding `COc1ccc(Cn2nnc3c(N4CC[C@H](O)C4)nc(C(C)(C)C)nc32)cc1` [Example 106, (S)-1-[5-tert-Butyl-3-(4-methoxy-benzyl)-3H-[1,2,3]triazolo[4,5-d]pyrimidin-7-yl]-pyrrolidin-3-ol], the pEC50 was less than 5.00 on human CB1 receptors and 8.32 on human CB2 receptors.

For the compound `CC(C)(C)c1nc(N2CCC(F)(F)C2)c2nnn(CC(=O)c3ccccn3)c2n1` [Example 127, 2-[5-tert-Butyl-7-(3,3-difluoro-pyrrolidin-1-yl)-[1,2,3]triazolo[4,5-d]pyrimidin-3-yl]-1-pyridin-2-yl-ethanone], the pEC50 on human CB1 receptors was less than 5.00; at human CB2 receptors, 9.40.

Regarding `Cc1noc(C2CCCN2c2nc(C(C)(C)C)nc3c2nnn3Cc2ccccc2Cl)n1` (stereo not shown) [Example 203, 5-tert-Butyl-3-(2-chloro-benzyl)-7-[2-(3-methyl-[1,2,4]oxadiazol-5-yl)-pyrrolidin-1-yl]-3H-[1,2,3]triazolo[4,5-d]pyrimidine], the pEC50 on human CB1 receptors was less than 5.00; at human CB2 receptors, 7.27.

Take `CC(C)(C)c1nc(N2CCC(F)(F)C2)c2nnn(Cc3ccc(F)cc3Cl)c2n1` [Example 71, 5-tert-Butyl-3-(2-chloro-4-fluoro-benzyl)-7-(3,3-difluoro-pyrrolidin-1-yl)-3H-[1,2,3]triazolo[4,5-d]pyrimidine]: the figures for the negative-log EC50 (pEC50) at human CB1 receptors and on human CB2 receptors were less than 5.00 and 9.40, respectively.

Consider `CC(C)(C)c1nc(N2CCC(F)(F)C2)c2nnn(Cc3nnnn3C3CC3)c2n1` [Example 157, 5-tert-Butyl-3-(1-cyclopropyl-1H-tetrazol-5-ylmethyl)-7-(3,3-difluoro-pyrrolidin-1-yl)-3H-[1,2,3]triazolo[4,5-d]pyrimidine], for which the pEC50 on human CB1 receptors is less than 5.00; at human CB2 receptors, 10.00.

For `Cc1nnc(Cn2nnc3c(N4CCC(F)(F)C4)nc(C(C)(C)C)nc32)n1C` [Example 146, 5-tert-Butyl-7-(3,3-difluoro-pyrrolidin-1-yl)-3-(4,5-dimethyl-4H-[1,2,4]triazol-3-ylmethyl)-3H-[1,2,3]triazolo[4,5-d]pyrimidine], the pEC50 is less than 5.00 at human CB1 receptors and 9.30 on human CB2 receptors.

Turning to `CC(C)(C)c1nc(N2CCC(F)(F)C2)c2nnn(Cc3ccccn3)c2n1` [Example 73, 5-tert-Butyl-7-(3,3-difluoro-pyrrolidin-1-yl)-3-pyridin-2-ylmethyl-3H-[1,2,3]triazolo[4,5-d]pyrimidine], the pEC50 at human CB1 receptors is 7.22; on human CB2 receptors, 10.00.

For `CC(C)(C)c1nc(N2CCC(F)(F)C2)c2nnn(CCc3ccccn3)c2n1` [Example 113, 5-tert-Butyl-7-(3,3-difluoro-pyrrolidin-1-yl)-3-(2-pyridin-2-yl-ethyl)-3H-[1,2,3]triazolo[4,5-d]pyrimidine], the values for the negative-log EC50 (pEC50) at human CB1 receptors and at human CB2 receptors were 6.70 and 9.70, respectively.

On to `COCCn1nnc2c(N3CCC(F)(F)C3)nc(C(C)(C)C)nc21` [Example 62, 5-tert-Butyl-7-(3,3-difluoro-pyrrolidin-1-yl)-3-(2-methoxy-ethyl)-3H-[1,2,3]triazolo[4,5-d]pyrimidine], for which the figures for the pEC50 on human CB1 receptors and on human CB2 receptors were less than 5.00 and 8.48, respectively.

`CC(C)(C)c1nc(N2CCC(F)(F)C2)c2nnn(Cc3cccnc3Cl)c2n1` [Example 97, 5-tert-Butyl-3-(2-chloro-pyridin-3-ylmethyl)-7-(3,3-difluoro-pyrrolidin-1-yl)-3H-[1,2,3]triazolo[4,5-c]pyrimidine]: the negative logarithm of the EC50 (pEC50) at human CB1 receptors was 7.21; at human CB2 receptors it was 10.00.

`CC(C)(C)c1nc(OC2CCCC2)c2nnn(Cc3ccccc3Cl)c2n1` [Example 212, 5-tert-Butyl-3-(2-chloro-benzyl)-7-cyclopentyloxy-3H-[1,2,3]triazolo[4,5-d]pyrimidine]: the pEC50 on human CB1 receptors was less than 5.00; on human CB2 receptors, 7.66.
